This is an account of results in BindingDB's records for PubMed 8100350 (University of Pennsylvania, 1993).

Molecules are shown by their SMILES. Where a SMILES comes first, the peptide text is derived from it. Bridges are numbered along the chain shown (N, C = ends). [ ]: non-standard residue; d: D form. The star is where a group is joined. ξ: configuration not given here. NH(1-naphthylmethyl) = c1ccc2c(CN*)cccc2c1; Phe(4-Cl) = N[C@@H](Cc1ccc(Cl)cc1)C(=O)O; 2Nal = N[C@@H](Cc1ccc2ccccc2c1)C(=O)O; d2Nal = N[C@H](Cc1ccc2ccccc2c1)C(=O)O; 1Nal = N[CH](Cc1cccc2ccccc12)C(=O)O; dNMeF = CN[C@H](Cc1ccccc1)C(=O)O; Thr(3ξ) = CC(O)[C@H](N)C(=O)O; Thr(ol) = C[CH](O)[CH](N)CO; NMeA = CN[C@@H](C)C(=O)O; dNMeA = CN[C@H](C)C(=O)O; Abu = CC[C@H](N)C(=O)O; Aoc = NCCCCCCCC(=O)O; Ahp = NCCCCCCC(=O)O; Ahx = NCCCCCC(=O)O; Bn = c1ccc(C*)cc1

Assay [1] concerns the target Somatostatin receptor type 1 (Homo sapiens, UniProt P30872).
For assay [2], the target named is Somatostatin receptor type 3 (Mus musculus, UniProt P30935).
The target in assay [3] is Somatostatin receptor type 2 (Mus musculus, UniProt P30875).
Chain of Somatostatin receptor type 2 (P30875 whole entry): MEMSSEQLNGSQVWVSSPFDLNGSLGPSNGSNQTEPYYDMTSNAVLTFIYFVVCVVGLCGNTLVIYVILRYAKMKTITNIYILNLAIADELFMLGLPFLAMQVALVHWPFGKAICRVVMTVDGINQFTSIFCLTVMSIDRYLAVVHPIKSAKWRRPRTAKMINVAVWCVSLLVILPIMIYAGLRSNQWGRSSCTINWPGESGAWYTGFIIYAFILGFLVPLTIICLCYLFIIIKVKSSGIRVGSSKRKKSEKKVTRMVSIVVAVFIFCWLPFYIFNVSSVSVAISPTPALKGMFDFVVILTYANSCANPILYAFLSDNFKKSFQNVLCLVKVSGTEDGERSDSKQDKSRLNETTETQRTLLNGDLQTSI

Chain of Somatostatin receptor type 1 (P30872 whole entry): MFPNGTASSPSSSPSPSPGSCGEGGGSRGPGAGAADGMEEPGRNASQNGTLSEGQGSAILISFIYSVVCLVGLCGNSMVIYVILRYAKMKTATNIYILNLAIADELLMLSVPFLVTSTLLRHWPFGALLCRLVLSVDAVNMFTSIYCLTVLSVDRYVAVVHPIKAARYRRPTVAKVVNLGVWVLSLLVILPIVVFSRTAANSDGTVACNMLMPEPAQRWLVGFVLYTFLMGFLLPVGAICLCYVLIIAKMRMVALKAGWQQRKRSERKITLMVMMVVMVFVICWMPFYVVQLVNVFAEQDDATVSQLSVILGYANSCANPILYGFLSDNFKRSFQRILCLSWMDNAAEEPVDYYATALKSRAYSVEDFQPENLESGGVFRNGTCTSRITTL
Chain of Somatostatin receptor type 3 (P30935 whole entry): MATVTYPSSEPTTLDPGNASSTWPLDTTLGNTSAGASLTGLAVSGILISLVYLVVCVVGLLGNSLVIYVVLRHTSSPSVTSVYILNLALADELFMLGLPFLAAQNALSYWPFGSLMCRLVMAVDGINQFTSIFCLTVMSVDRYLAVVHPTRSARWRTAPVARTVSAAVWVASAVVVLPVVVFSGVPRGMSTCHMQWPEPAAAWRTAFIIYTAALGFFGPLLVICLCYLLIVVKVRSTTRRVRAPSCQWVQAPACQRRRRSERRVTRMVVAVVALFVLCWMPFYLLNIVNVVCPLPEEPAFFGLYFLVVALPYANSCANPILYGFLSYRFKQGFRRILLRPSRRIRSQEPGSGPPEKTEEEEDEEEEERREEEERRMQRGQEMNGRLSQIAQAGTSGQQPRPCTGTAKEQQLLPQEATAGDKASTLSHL

For `C[C@@H](O)[C@H](NC(=O)[C@H](Cc1ccccc1)NC(=O)[C@@H](NC(=O)[C@H](CCCCN)NC(=O)[C@@H](Cc1c[nH]c2ccccc12)NC(=O)[C@H](Cc1ccc(O)cc1)NC(=O)[C@H](Cc1ccc(Cl)cc1)NC(=O)[C@H](N)Cc1ccccc1)[C@@H](C)O)C(N)=O` [BIM 23068] (H-[dF][Phe(4-Cl)]Y[dW]KTFT-NH2), the Ki in assay [1] stood at 1000 nM; in assay [2], 0.8 nM; in assay [3], 0.15 nM.

For the compound `CC(C)C1NC(=O)C(CCCCN)NC(=O)C(Cc2c[nH]c3ccccc23)NC(=O)C(Cc2ccc(O)cc2)NC(=O)C(NC(=O)C(N)Cc2cccc3ccccc23)CSSCC(C(=O)NC(CO)C(C)O)NC1=O` (stereo not drawn) [DC23-60] (H-[1Nal]CYWKVC[Thr(ol)]; disulfide 2-7; configuration not given here), the Ki was 241 nM in assay [1], 166 nM in assay [2] and 0.93 nM in assay [3].

With `CC(C)[C@H](NC(=O)[C@H](CCCCN)NC(=O)[C@@H](Cc1c[nH]c2ccccc12)NC(=O)[C@H](Cc1ccc(O)cc1)NC(=O)[C@H](C)NC(=O)[C@H](N)Cc1ccccc1)C(=O)N[C@@H](C)C(=O)N[C@@H](Cc1ccc2ccccc2c1)C(N)=O` [L-Alaninamide,D-phenylalanyl-L-alanyl-L-tyrosyl-D-tryptophyl-L-lysyl-L-valyl-L-alanyl-3-(2-naphthalenyl)-(9CI)] (H-[dF]AY[dW]KVA[2Nal]-NH2), the figures for the inhibition constant Ki in assay [1], in assay [2] and in assay [3] were 1000 nM, 152 nM and 6.1 nM, respectively.

Regarding `C[C@@H](OCc1ccccc1)[C@@H]1NC(=O)[C@H](CCCCN)NC(=O)[C@@H](Cc2c[nH]c3ccccc23)NC(=O)[C@H](Cc2ccccc2)NC(=O)CCCCCNC1=O` [c[Ahx-Phe-D-Trp-Lys-Thr(Bzl)]] (cyclo([Ahx]F[dW]KT(Bn))), the Ki in assay [1] worked out at 183 nM; in assay [2], 73 nM; in assay [3], 1000 nM.

Take `CC(C)[C@H](NC(=O)[C@H](CCCCN)NC(=O)[C@@H](Cc1c[nH]c2ccccc12)NC(=O)[C@H](Cc1ccc(O)cc1)NC(=O)[C@H](Cc1ccc(Cl)cc1)NC(=O)[C@@H](N)Cc1ccccc1)C(=O)N[C@@H](Cc1ccccc1)C(=O)N[C@H](C)C(N)=O` [BIM 23064] (H-F[Phe(4-Cl)]Y[dW]KVF[dA]-NH2): the inhibition constant (Ki) in assay [1] is 1000 nM; in assay [2], 34 nM; in assay [3], 948 nM.

Regarding `CC(C)[C@H](NC(=O)[C@H](CCCCN)NC(=O)[C@@H](Cc1c[nH]c2ccccc12)NC(=O)[C@H](Cc1ccc(O)cc1)NC(=O)[C@H](Cc1ccccc1)NC(=O)[C@H](N)Cc1ccccc1)C(=O)N[C@@H](Cc1ccccc1)C(=O)N[C@H](Cc1ccccc1)C(N)=O` [D-Phe-Phe-Tyr-D-Trp-Lys-Val-Phe-D-Phe-NH2] (H-[dF]FY[dW]KVF[dF]-NH2), the figures for the Ki in assay [1], in assay [2] and in assay [3] were 1000 nM, 38 nM and more than 10000 nM, respectively.

For the compound `NCCCCC1NC(=O)C(Cc2c[nH]c3ccccc23)NC(=O)C(Cc2ccc(O)cc2)NC(=O)C(NC(=O)C(N)Cc2ccccc2)CSSCC(C(=O)NCc2cccc3ccccc23)NC(=O)C(CO)NC1=O` (stereo not drawn) [NC4-28B] (H-FCYWKSC-{NH(1-naphthylmethyl)}; disulfide 2-7; configuration not given here), the inhibition constant (Ki) came out at 1000 nM in assay [1], 112 nM in assay [2] and 0.002 nM in assay [3].

Consider `C[C@H](O)[C@H]1NC(=O)[C@H](CCCCN)NC(=O)[C@@H](Cc2c[nH]c3ccccc23)NC(=O)[C@@H](Cc2ccccc2)NC(=O)[C@@H](C)N(C)C(=O)[C@@H](Cc2ccccc2)N(C)C1=O` [N-Methylcyclo(D-Ala-D-Phe-D-Trp-L-Lys-D-Thr-N-methyl-D-Phe-)] (cyclo(K[dT][dNMeF][dNMeA][dF][dW])), for which the Ki in assay [1] was determined as 1000 nM; in assay [2] it was 18.9 nM; in assay [3] it was 26 nM.

As for `CC(C)[C@@H]1NC(=O)[C@H](CCCCN)NC(=O)[C@@H](Cc2c[nH]c3ccccc23)NC(=O)[C@H](Cc2ccc(O)cc2)NC(=O)[C@@H](NC(=O)[C@H](N)Cc2ccc3ccccc3c2)CSSC[C@@H](C(=O)N[C@@H](Cc2ccc3ccccc3c2)C(N)=O)NC1=O` [BIM 23042] (H-[d2Nal]CY[dW]KVC[2Nal]-NH2; disulfide 2-7), the Ki in assay [1] is 1000 nM; in assay [2] it was 207 nM; in assay [3], 4.2 nM.

`CC(O)[C@H](NC(=O)[C@H](CCCCN)NC(=O)[C@@H](Cc1c[nH]c2ccccc12)NC(=O)[C@H](Cc1ccccc1)NC(=O)[C@@H](C)NC(=O)[C@@H](N)Cc1ccccc1)C(=O)N[C@@H](C)C(=O)N[C@H](C(N)=O)[C@@H](C)O` (stereo partly drawn) [BIM 23051] (H-F[dA]F[dW]K[Thr(3ξ)]AT-NH2): the Ki was found to be 1000 nM in assay [1], 72 nM in assay [2] and 836 nM in assay [3].

Regarding `CC(O)C1NC(=O)C(CCCCN)NC(=O)C(Cc2c[nH]c3ccccc23)NC(=O)C(Cc2ccccc2)NC(=O)C(NC(=O)C(N)Cc2ccccc2)CSSCC(C(=O)NCc2cccc3ccccc23)NC1=O` (stereo not drawn) [EC5-21] (H-FCFWKTC-{NH(1-naphthylmethyl)}; disulfide 2-7; configuration not given here), the inhibitory constant (Ki) in assay [1] worked out at 382 nM; in assay [2], 20 nM; in assay [3], 4.8 nM.

With `C[C@@H](OCc1ccccc1)[C@@H]1NC(=O)[C@H](CCCCN)NC(=O)[C@@H](Cc2c[nH]c3ccccc23)NC(=O)[C@H](Cc2ccccc2)NC(=O)CCCCCCNC1=O` [c[Aha-Phe-D-Trp-Lys-Thr(Bzl)]] (cyclo([Ahp]F[dW]KT(Bn))), the Ki in assay [1] was determined as 141 nM; in assay [2], 107 nM; in assay [3], 1000 nM.

Turning to `CC(C)[C@H](NC(=O)[C@H](CCCCN)NC(=O)[C@@H](Cc1c[nH]c2ccccc12)NC(=O)[C@H](Cc1ccc(O)cc1)NC(=O)[C@H](Cc1ccc(Cl)cc1)NC(=O)[C@H](N)Cc1ccccc1)C(=O)N[C@@H](Cc1ccccc1)C(=O)N[C@H](C(N)=O)[C@@H](C)O` [BIM 23057] (H-[dF][Phe(4-Cl)]Y[dW]KVFT-NH2), the Ki in assay [1] was 1000 nM; in assay [2], 4.8 nM; in assay [3], 2.4 nM.

As for `CC(C)[C@H](NC(=O)[C@H](CCCCN)NC(=O)[C@@H](Cc1c[nH]c2ccccc12)NC(=O)[C@H](Cc1ccc(O)cc1)NC(=O)[C@H](C)NC(=O)[C@H](N)Cc1ccccc1)C(=O)N[C@@H](C)C(=O)N[C@H](Cc1ccc2ccccc2c1)C(N)=O` [D-Phe-AIa-Tyr-D-Trp-Lys-Val-Ala-D-Nal-NH2] (H-[dF]AY[dW]KVA[d2Nal]-NH2), the Ki in assay [1] was 146 nM; in assay [2], 65 nM; in assay [3], 60 nM.

`NCCCC[C@@H]1NC(=O)[C@@H](Cc2c[nH]c3ccccc23)NC(=O)[C@H](Cc2ccccc2)NC(=O)CCCCCCNC(=O)[C@H](COCc2ccccc2)NC1=O` [c[Aha-Phe-D-Trp-Lys-Ser(Bzl)]] (cyclo([Ahp]F[dW]KS(Bn))): the Ki in assay [1] stood at 80 nM; in assay [2], 214 nM; in assay [3], 1000 nM.

On to `CC(C)[C@H](NC(=O)[C@H](CCCCN)NC(=O)[C@@H](Cc1c[nH]c2ccccc12)NC(=O)[C@H](Cc1ccc(O)cc1)NC(=O)[C@H](Cc1ccccc1)NC(=O)[C@H](N)Cc1ccccc1)C(=O)N[C@@H](Cc1ccccc1)C(=O)N[C@H](C(N)=O)[C@@H](C)O` [BIM-23058] (H-[dF]FY[dW]KVFT-NH2), for which the Ki came out at 1000 nM in assay [1], 0.04 nM in assay [2] and 46 nM in assay [3].

As for `C[C@@H](OCc1ccccc1)[C@@H]1NC(=O)[C@H](CCCCN)NC(=O)[C@@H](Cc2c[nH]c3ccccc23)NC(=O)[C@H](Cc2ccccc2)NC(=O)CCCCCCCNC1=O` [c[Aoc-Phe-D-Trp-Lys-Thr(Bzl)]] (cyclo([Aoc]F[dW]KT(Bn))), the values for the Ki in assay [1], in assay [2] and in assay [3] were 700 nM, 101 nM and 1000 nM, respectively.

As to `CC[C@@H]1NC(=O)[C@H](CCCCN)NC(=O)[C@@H](Cc2c[nH]c3ccccc23)NC(=O)[C@H](Cc2ccc(O)cc2)NC(=O)[C@H](C)N(C)C(=O)[C@H](Cc2ccccc2)NC1=O` [BIM-23027] (cyclo([Abu]F[NMeA]Y[dW]K)), the inhibition constant Ki in assay [1] was found to be 1000 nM; in assay [2], 2.4 nM; in assay [3], 0.001 nM.

As for `C[C@@H](O)[C@H](NC(=O)[C@H](Cc1ccccc1)NC(=O)[C@@H](NC(=O)[C@H](CCCCN)NC(=O)[C@@H](Cc1c[nH]c2ccccc12)NC(=O)[C@H](Cc1ccc(O)cc1)NC(=O)[C@H](Cc1ccc(Cl)cc1)NC(=O)[C@H](N)Cc1ccc2ccccc2c1)[C@@H](C)O)C(N)=O` [CAS_150155-63-8] (H-[d2Nal][Phe(4-Cl)]Y[dW]KTFT-NH2), the inhibitory constant (Ki) in assay [1] amounted to 1000 nM; in assay [2] it was 11 nM; in assay [3], 40 nM.

As for `CC(C)[C@H](NC(=O)[C@H](CCCCN)NC(=O)[C@@H](Cc1c[nH]c2ccccc12)NC(=O)[C@H](Cc1ccc(O)cc1)NC(=O)[C@H](Cc1ccc(Cl)cc1)NC(=O)[C@@H](N)Cc1ccccc1)C(=O)N[C@@H](Cc1ccccc1)C(=O)N[C@@H](Cc1ccc2ccccc2c1)C(N)=O` [BIM 23063] (H-F[Phe(4-Cl)]Y[dW]KVF[2Nal]-NH2), the Ki in assay [1] was 1000 nM; in assay [2], 81 nM; in assay [3] it was 248 nM.

As to `C[C@@H](O)[C@@H]1NC(=O)[C@H](CCCCN)NC(=O)[C@@H](Cc2c[nH]c3ccccc23)NC(=O)[C@H](Cc2ccccc2)NC(=O)[C@@H]2CCCN2C(=O)[C@H](Cc2ccccc2)NC1=O` (cyclo(PF[dW]KTF)), the figures for the inhibition constant Ki in assay [1], in assay [2] and in assay [3] were 1000 nM, 108 nM and 8.6 nM, respectively.

What is called Ki is a measure of affinity in units of concentration, obtained from inhibition or displacement.
